These molecules were tested on Human RSV-A (“Long” strain) (assay: RSV-A assay: inhibition of cytopathic effect in Hep-2 cells, ATPlite readout). Details: human respiratory syncytial virus, HEp-2, 120 h, read-out: Human RSV-A (“Long” strain) EC50.
Format: cell-based, Human respiratory syncytial virus (HRSV)
Source text: Hep-2 cells, (originally derived from tumors grown in irradiated-cortisonised weanling rats that had been injected with epidermoid carcinoma tissue from a person's larynx, but later found to be indistinguishable from HeLa cells by PCR DNA analysis), were used for the culturing of genotype A, “Long” strain RSV. Flasks were inoculated with RSV and viral stocks were collected once cytopathic effect (CPE) was greater than 90%. Viral stocks in 25% sucrose media were snap frozen using liquid nitrogen to increase viral stability. Viral stock titers were quantified by tissue culture infectious dose 50% (TCID50) using 8,000 cells per well and 3-fold viral dilutions across a 96-well plate, cultured for 4 days. Viral stock titers were also quantified by a plaque forming unit assay, as described elsewhere.
Following extensive parameter testing, the final assay is run as follows: Hep-2 cells are seeded into the inner 60 wells of a 96-well plate at 8,000 cells per well in a volume of 50 μL using Growth Media (DMEM without phenol red, 1% L-Glut, 1% Penn/Strep, 1% nonessential amino acids, 10% heat-inactivated FBS). 2-fold serial dilutions of control and test compounds are added to the wells in duplicate in a total volume of 25 μL. Viral stock is then added to the wells at a multiplicity of infection (MOI) of 0.1 in a volume of 25 μL, bringing the total volume of each well to 100 μL. The MOI is calculated using the PFU/mL, or TCID50 if unavailable. Each 96-well plate has a control column of 6 wells with cells and virus but no compound (negative control, max CPE), a column with cells but no compound or virus (positive control, minimum CPE), and a column with no cells or virus or compound (background plate/reagent control). The control wells with cells but no virus are given an additional 25 uL of growth media containing an equal quantity of sucrose as those wells receiving the viral stock in order to keep consistent in media and volume conditions. The outer wells of the plate are filled with 125 μL of moat media (DMEM, 1% Penn/Strep) to act as a thermal and evaporative moat around the test wells. Following a 5-day incubation period, the plates are read using ATPlite (50 uL added per well), which quantifies the amount of ATP (a measure of cell health) present in each well. Assay plates are read using the Envision luminometer. In parallel, cytotoxicity is examined on an additional 96-well plate treated in an identical manner, but substituting the 25 μL of viral stock for 25 μL of growth media. […] EC50 ranges are as follows: A<0.4 μM; B 0.4-0.8 μM; C>0.8 μM and CC50 ranges are as follows: A>50 μM; B 10-50 μM; C<10 μM.
`N#Cc1ccc(-c2nnc(N[C@H]3N=C(c4ccccc4)c4ccccc4NC3=O)o2)c(N2CCOCC2)c1` [Example 157] gave an EC50 of under 400 nM.
Work on `O=C1Nc2ccccc2C(c2ccccc2)=N[C@@H]1Nc1nnc(-c2ccc(F)cc2N2CCOCC2)o1` [Example 159] yielded an EC50 of under 400 nM.
In the case of `O=C1Nc2ccccc2C(c2ccccc2)=N[C@@H]1Nc1nnc(-c2cnc(N3CCOCC3)cn2)o1` [Example 161], the EC50 is reported as over 800 nM.
`O=C1Nc2ccccc2C(c2ccccc2)=N[C@@H]1Nc1nnc(-c2cnc(C(F)(F)F)nc2N2CCOCC2)o1` [Example 162] showed an EC50 of under 400 nM.
With `O=C1Nc2ccccc2C(c2ccccc2)=N[C@@H]1Nc1nnc(-c2nc3ccccn3c2N2CCOCC2)o1` [Example 163] the EC50 was over 800 nM.
`Cn1cc(N2CCOCC2)c(-c2nnc(N[C@H]3N=C(c4ccccc4)c4ccccc4NC3=O)o2)n1` [Example 164] showed an EC50 of under 400 nM.
Work on `O=C1Nc2ccccc2C(c2ccccc2)=N[C@@H]1Nc1nnc(-c2cnc(N3CCOCC3)nc2)o1` [Example 165] yielded an EC50 of 400 to 800 nM.
In the case of `O=C1Nc2ccccc2C(c2ccccc2)=N[C@@H]1Nc1nnc(-c2cnc(N3CC4CCC(C3)O4)nc2)o1` [Example 166], the EC50 is reported as over 800 nM.
`O=C1Nc2ccccc2C(c2ccccc2)=N[C@@H]1Nc1nnc(-c2cnc(C3CC3)nc2N2CCOCC2)o1` [Example 167] gave an EC50 of under 400 nM.
`O=C1Nc2ccccc2C(c2ccccc2)=N[C@@H]1Nc1nnc(-c2cnc(-n3cccn3)nc2N2CCOCC2)o1` [Example 172] gave an EC50 of over 800 nM.
In the case of `O=C1Nc2ccccc2C(c2ccccc2)=N[C@@H]1Nc1nnc(-c2cnc(-n3cncn3)nc2N2CCOCC2)o1` [Example 173], the EC50 is reported as over 800 nM.
`N#Cc1cnc(N2CCOCC2)c(-c2nnc(N[C@H]3N=C(c4ccccc4)c4ccccc4NC3=O)o2)c1` [Example 174] showed an EC50 of under 400 nM.
For `CCc1nc(N2CCOCC2)c(-c2nnc(N[C@H]3N=C(c4ccccc4)c4ccccc4NC3=O)o2)cc1C#N` [Example 176], the EC50 was under 400 nM.
In the case of `Cn1ncc(-c2nnc(N[C@H]3N=C(c4ccccc4)c4ccccc4NC3=O)o2)c1N1CCOCC1` [Example 177], the EC50 is reported as over 800 nM.
`Cn1ncc(N2CCOCC2)c1-c1nnc(N[C@H]2N=C(c3ccccc3)c3ccccc3NC2=O)o1` [Example 178] showed an EC50 of 400 to 800 nM.
`O=C1Nc2ccccc2C(c2ccccc2)=N[C@@H]1Nc1nnc(-c2sc3ncccc3c2N2CCOCC2)o1` [Example 180] gave an EC50 of under 400 nM.
Molecule `Cn1cc(-c2nnc(N[C@H]3N=C(c4ccccc4)c4ccccc4NC3=O)o2)c(N2CCOCC2)n1` [Example 181] has an EC50 of under 400 nM.
For `O=C1Nc2ccccc2C(c2ccccc2)=N[C@@H]1Nc1nnc(-c2sc(Br)cc2N2CCOCC2)o1` [Example 182], the EC50 was under 400 nM.
`N#Cc1ccc(-c2nnc(NC3N=C(c4ccccc4)c4ccccc4NC3=O)o2)s1` (stereo not drawn) [Example 183] showed an EC50 of under 400 nM.
Work on `O=C1Nc2ccccc2C(c2ccccc2)=NC1Nc1nnc(-c2ccc(N3CCCC3)cc2)o1` (stereo not drawn) [Example 184] yielded an EC50 of 400 to 800 nM.
Work on `COc1cnc(-c2nnc(NC3N=C(c4ccccc4)c4ccccc4NC3=O)o2)c(F)c1` (stereo not drawn) [Example 185] yielded an EC50 of over 800 nM.
`Cn1nnc(-c2ccc(-c3nnc(NC4N=C(c5ccccc5)c5ccccc5NC4=O)o3)cc2)n1` (stereo not drawn) [Example 186] gave an EC50 of over 800 nM.
Molecule `Cc1nc2ccc(-c3nnc(NC4N=C(c5ccccc5)c5ccccc5NC4=O)o3)cc2s1` (stereo not drawn) [Example 187] has an EC50 of 400 to 800 nM.
With `CC(C)c1nnc(NC2N=C(c3ccccc3)c3ccccc3NC2=O)o1` (stereo not drawn) [Example 188] the EC50 was over 800 nM.
For `CC(C)(C)c1nnc(NC2N=C(c3ccccc3)c3ccccc3NC2=O)o1` (stereo not drawn) [Example 189], the EC50 was over 800 nM.
Molecule `CCCc1nnc(NC2N=C(c3ccccc3)c3ccccc3NC2=O)o1` (stereo not drawn) [Example 190] has an EC50 of over 800 nM.
Molecule `COCc1nnc(NC2N=C(c3ccccc3)c3ccccc3NC2=O)o1` (stereo not drawn) [Example 191] has an EC50 of over 800 nM.
In the case of `O=C1Nc2ccccc2C(c2ccccc2)=NC1Nc1nnc(CCC(F)(F)F)o1` (stereo not drawn) [Example 192], the EC50 is reported as over 800 nM.
`N#CCCc1nnc(NC2N=C(c3ccccc3)c3ccccc3NC2=O)o1` (stereo not drawn) [Example 193] showed an EC50 of over 800 nM.
`CS(=O)(=O)Cc1nnc(NC2N=C(c3ccccc3)c3ccccc3NC2=O)o1` (stereo not drawn) [Example 194] gave an EC50 of over 800 nM.
Molecule `CC1(c2nnc(NC3N=C(c4ccccc4)c4ccccc4NC3=O)o2)CC1` (stereo not drawn) [Example 195] has an EC50 of over 800 nM.
In the case of `O=C1Nc2ccccc2C(c2ccccc2)=NC1Nc1nnc(C2CCC2)o1` (stereo not drawn) [Example 196], the EC50 is reported as over 800 nM.
Work on `O=C1Nc2ccccc2C(c2ccccc2)=NC1Nc1nnc(C2CCCC2)o1` (stereo not drawn) [Example 197] yielded an EC50 of over 800 nM.
`O=C1Nc2ccccc2C(c2ccccc2)=NC1Nc1nnc([C@H]2CCCO2)o1` (stereo partly drawn) [Example 198] gave an EC50 of over 800 nM.
In the case of `O=C1Nc2ccccc2C(c2ccccc2)=NC1Nc1nnc(CCc2ccccc2)o1` (stereo not drawn) [Example 199], the EC50 is reported as over 800 nM.
For `Cc1nc(-c2nnc(NC3N=C(c4ccccc4)c4ccccc4NC3=O)o2)ccc1C#N` (stereo not drawn) [Example 200], the EC50 was 400 to 800 nM.
With `CN1C(=O)C(Nc2nnc(-c3ccc(F)cc3)o2)N=C(c2ccccc2)c2ccccc21` (stereo not drawn) [Example 201] the EC50 was over 800 nM.
In the case of `O=C1Nc2ccccc2C(c2ccccc2)=NC1Nc1nnc(-c2ccc(-n3ccc(C(F)(F)F)n3)cc2)o1` (stereo not drawn) [Example 202], the EC50 is reported as over 800 nM.
`O=C1Nc2ccccc2C(c2ccccc2)=NC1Nc1nnc(CC(F)(F)F)o1` (stereo not drawn) [Example 203] gave an EC50 of over 800 nM.
For `CC1(C)C[C@@H]1c1nnc(NC2N=C(c3ccccc3)c3ccccc3NC2=O)o1` (stereo partly drawn) [Example 205], the EC50 was over 800 nM.
`CC1(C)CC(c2nnc(NC3N=C(c4ccccc4)c4ccccc4NC3=O)o2)C1` (stereo not drawn) [Example 206] showed an EC50 of over 800 nM.
With `O=C1Nc2ccccc2C(c2ccccc2)=NC1Nc1nnc([C@@H]2CCCO2)o1` (stereo partly drawn) [Example 207] the EC50 was over 800 nM.
With `CC(C)(Cc1ccccc1)c1nnc(NC2N=C(c3ccccc3)c3ccccc3NC2=O)o1` (stereo not drawn) [Example 208] the EC50 was over 800 nM.
For `CN(c1nnc(-c2ccc(F)cc2)o1)C1N=C(c2ccccc2)c2ccccc2NC1=O` (stereo not drawn) [Example 209], the EC50 was over 800 nM.
With `CN1CCN(c2ccc(-c3nnc(NC4N=C(c5ccccc5)c5ccccc5NC4=O)o3)cc2)CC1` (stereo not drawn) [Example 210] the EC50 was over 800 nM.
Work on `O=C1Nc2ccccc2C(c2ccccc2)=NC1Nc1nnc(-c2ccc(-n3cccn3)nc2)o1` (stereo not drawn) [Example 211] yielded an EC50 of over 800 nM.
`O=C1Nc2ccccc2C(c2ccccc2)=NC1Nc1nnc(-c2cccc(-n3ccnc3)c2)o1` (stereo not drawn) [Example 212] showed an EC50 of over 800 nM.
In the case of `CC(C)(O)c1nnc(NC2N=C(c3ccccc3)c3ccccc3NC2=O)o1` (stereo not drawn) [Example 213], the EC50 is reported as over 800 nM.
For `O=C1Nc2ccccc2C(c2ccccc2)=NC1Nc1nnc(C2CC(F)(F)C2)o1` (stereo not drawn) [Example 214], the EC50 was over 800 nM.
With `O=C1Nc2ccccc2C(c2ccccc2)=NC1Nc1nnc(C2CCOC2)o1` (stereo not drawn) [Example 215] the EC50 was over 800 nM.
Molecule `O=C1Nc2ccccc2C(c2ccccc2)=NC1Nc1nnc(-c2ccc(-n3cncn3)c(F)c2)o1` (stereo not drawn) [Example 216] has an EC50 of 400 to 800 nM.
`Cc1cc(-c2nnc(NC3N=C(c4ccccc4)c4ccccc4NC3=O)o2)ccc1-n1cncn1` (stereo not drawn) [Example 217] gave an EC50 of 400 to 800 nM.
For `Cc1cc(-n2cncn2)ccc1-c1nnc(NC2N=C(c3ccccc3)c3ccccc3NC2=O)o1` (stereo not drawn) [Example 218], the EC50 was over 800 nM.
Work on `COc1cc(-c2nnc(NC3N=C(c4ccccc4)c4ccccc4NC3=O)o2)ccc1-n1cnc(C)c1` (stereo not drawn) [Example 219] yielded an EC50 of over 800 nM.
`O=C1Nc2ccccc2C(c2ccccc2)=NC1Nc1nnc(-c2ccc(OC3CCOCC3)cc2)o1` (stereo not drawn) [Example 220] was tested, and the EC50 was over 800 nM.
Work on `O=C1Nc2ccccc2C(c2ccccc2)=NC1Nc1nnc(C2CCNC2)o1` (stereo not drawn) [Example 221] yielded an EC50 of over 800 nM.
`O=C1Nc2ccccc2C(c2ccccc2)=NC1Nc1nnc(C2CC3(CCNCC3)C2)o1` (stereo not drawn) [Example 222] showed an EC50 of over 800 nM.

From US11390631B1, “Benzodiazepine derivatives as RSV inhibitors” (priority 2015, dated 2022)
